Laboratory results published in article PMC11252418, “Specific glycine-dependent enzyme motion determines the potency of conformation selective inhibitors of threonyl-tRNA synthetase” (Communications Biology, 2024).
Where two headings read alike, the source gives them in different places.

How the values were obtained:
[1] = biological target: T1, EcThrRS_G463S (Escherichia coli, UniProt P0A8M3, G463S); test: Thermal shift assay (TSA); type: binding
T1 construct: The E. coli ThrRS (residues 242-642, Supplementary Note 1) wild type; 6xHis (C); made in house; host or cells: E. coli BL21 (DE3)
Description: (§1) The EcThrRS_WT and L489M/G463S/G463S_Q484A/G463A/A316N mutant proteins, ObaO_WT and ObaO_S464G mutant proteins were prepared at 2 μM in buffer containing 25 mM Tris-HCl pH 7.5, 200 mM NaCl, and 20 μM OB (GlpBio, US) or BN (GlpBio, US) or ddH2O in equal volumes since the compounds were diluted with ddH2O to 1 mM as stocks. […] SYPRO orange dye (Sigma, USA) was diluted in assay buffer containing 25 mM Tris-HCl pH 7.5 and 200 mM NaCl to a 40× concentration, and was added to the mixture to a final 4× concentration. Aliquots (20 μL) were added to a 96-well PCR plate. After complete mixing, the final solutions were heated from 25 to 95 °C at a rate of 0.015 °C/s, and fluorescence signals were monitored by QuantStudio 3 (Applied Biosystems by Thermo Fisher Scientific, USA). The melting temperature (Tm) was calculated through a previously established method[56],[57].

[2] = biological target: T2, EcThrRS_A316N (Escherichia coli, UniProt P0A8M3, A316N); test: Thermal shift assay (TSA); type: binding
T2 construct: The E. coli ThrRS (residues 242-642, Supplementary Note 1) wild type; 6xHis (C); made in house; host or cells: E. coli BL21 (DE3)
Description: as §1

[3] = biological target: T3, EcThrRS_L489M (Escherichia coli, UniProt P0A8M3, L489M); test: Thermal shift assay (TSA); type: binding
T3 construct: The E. coli ThrRS (residues 242-642, Supplementary Note 1) wild type; 6xHis (C); made in house; host or cells: E. coli BL21 (DE3)
Description: as §1

[4] = biological target: T4, EcThrRS_G463A (Escherichia coli, UniProt P0A8M3, G463A); test: Thermal shift assay (TSA); type: binding
T4 construct: The E. coli ThrRS (residues 242-642, Supplementary Note 1) wild type; 6xHis (C); made in house; host or cells: E. coli BL21 (DE3)
Description: as §1

[5] = biological target: T5, EcThrRS_G463S_Q484A (Escherichia coli, UniProt P0A8M3, G463S/Q484A); test: Thermal shift assay (TSA); type: binding
T5 construct: The E. coli ThrRS (residues 242-642, Supplementary Note 1) wild type; 6xHis (C); made in house; host or cells: E. coli BL21 (DE3)
Description: as §1

[6] = test system: in vitro translation system of Kluyveromyces marxianus; type: biochemical; details: K. marxianus extract, rebuttal letter
From the text: lactone produced by Pseudomonas fluorescens. Taxonomy, fermentation and biological properties. The Journal of antibiotics 37, 802-803 (1984).
28 Kumar, P. et al. l-Threonine Transaldolase Activity Is Enabled by a Persistent Catalytic Intermediate. ACS chemical biology 16, 86-95 (2021).
29 Schaffer, J. E., Reck, M. R., Prasad, N. K. & Wencewicz, T. A. beta-Lactone formation during product release from a nonribosomal peptide synthetase. Nat Chem Biol 13, […]
30 Scott, T. A., Heine, D., Qin, Z. & Wilkinson, B. An L-threonine transaldolase is required for L-threo-beta-hydroxy-alpha-amino acid assembly during obafluorin biosynthesis. Nature communications 8, 15935 (2017).
31 Kreitler, D. F., Gemmell, E. M., Schaffer, J. E., Wencewicz, T. A. & Gulick, A. M. The structural basis of N-acyl-alpha-amino-beta-lactone formation catalyzed by a nonribosomal peptide synthetase. Nature communications 10, 3432 (2019).
32 Jones, M. A. et al. Discovery of L-threonine transaldolases for enhanced biosynthesis of beta-hydroxylated amino acids. Communications biology 6, 929 (2023).
33 Batey, S. F. D. et al. The catechol moiety of obafluorin is essential for antibacterial
34 Qiao, H. et al. Tyrosine-targeted covalent inhibition of a tRNA synthetase aided by zinc ion. Communications biology 6, 107 (2023).
Whether OB has inhibitory activity against eukaryotic ThrRS is also a great question. […]

[7] = 2 μM protein, 20 μM compound, mean n = 4, read-out: ΔTm (increase of Tm)

T4 sequence (P0A8M3 242-642 G463A): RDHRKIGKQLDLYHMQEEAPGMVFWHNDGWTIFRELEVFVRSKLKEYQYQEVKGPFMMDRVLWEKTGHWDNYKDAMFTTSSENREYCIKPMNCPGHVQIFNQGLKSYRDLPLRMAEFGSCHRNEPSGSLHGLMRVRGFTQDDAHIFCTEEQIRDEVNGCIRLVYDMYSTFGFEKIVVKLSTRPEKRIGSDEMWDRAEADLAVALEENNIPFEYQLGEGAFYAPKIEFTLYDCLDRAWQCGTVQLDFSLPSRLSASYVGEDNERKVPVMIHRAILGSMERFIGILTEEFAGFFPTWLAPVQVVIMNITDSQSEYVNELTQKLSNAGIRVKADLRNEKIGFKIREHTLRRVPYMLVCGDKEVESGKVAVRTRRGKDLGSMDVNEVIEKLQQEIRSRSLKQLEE
T5 sequence (P0A8M3 242-642 G463S/Q484A): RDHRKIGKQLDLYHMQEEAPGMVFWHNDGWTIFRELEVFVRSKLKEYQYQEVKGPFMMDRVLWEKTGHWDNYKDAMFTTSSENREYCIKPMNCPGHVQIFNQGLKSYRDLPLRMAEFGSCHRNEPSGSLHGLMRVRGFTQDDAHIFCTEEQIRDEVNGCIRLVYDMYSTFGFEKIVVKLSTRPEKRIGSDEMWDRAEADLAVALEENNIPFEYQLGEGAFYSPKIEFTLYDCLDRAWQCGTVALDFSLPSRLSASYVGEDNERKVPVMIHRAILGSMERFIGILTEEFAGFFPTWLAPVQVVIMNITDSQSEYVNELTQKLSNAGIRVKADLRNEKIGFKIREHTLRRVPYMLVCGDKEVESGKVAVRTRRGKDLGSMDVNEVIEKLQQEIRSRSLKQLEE
T1 sequence (P0A8M3 242-642 G463S): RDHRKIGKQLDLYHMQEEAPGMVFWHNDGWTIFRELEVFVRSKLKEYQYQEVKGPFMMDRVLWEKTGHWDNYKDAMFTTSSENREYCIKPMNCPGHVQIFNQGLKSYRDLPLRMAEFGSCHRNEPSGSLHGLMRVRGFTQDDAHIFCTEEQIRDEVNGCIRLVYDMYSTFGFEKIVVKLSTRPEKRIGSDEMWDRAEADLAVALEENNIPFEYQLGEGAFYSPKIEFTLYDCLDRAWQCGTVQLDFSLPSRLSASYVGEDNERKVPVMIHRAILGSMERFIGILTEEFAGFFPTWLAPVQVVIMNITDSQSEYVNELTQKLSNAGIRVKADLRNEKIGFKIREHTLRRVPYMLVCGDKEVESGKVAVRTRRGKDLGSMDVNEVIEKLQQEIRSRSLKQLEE
T3 sequence (P0A8M3 242-642 L489M): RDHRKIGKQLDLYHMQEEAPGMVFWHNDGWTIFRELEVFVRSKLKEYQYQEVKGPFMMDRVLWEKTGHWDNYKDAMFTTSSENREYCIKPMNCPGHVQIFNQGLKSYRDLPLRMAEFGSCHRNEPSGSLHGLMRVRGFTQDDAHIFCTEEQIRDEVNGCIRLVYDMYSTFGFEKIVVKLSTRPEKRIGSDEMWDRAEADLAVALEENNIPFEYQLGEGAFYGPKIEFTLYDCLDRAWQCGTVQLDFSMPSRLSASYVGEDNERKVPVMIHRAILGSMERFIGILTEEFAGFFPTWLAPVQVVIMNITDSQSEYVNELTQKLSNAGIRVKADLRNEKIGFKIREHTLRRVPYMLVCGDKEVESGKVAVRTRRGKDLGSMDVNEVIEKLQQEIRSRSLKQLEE
T2 sequence (P0A8M3 242-642 A316N): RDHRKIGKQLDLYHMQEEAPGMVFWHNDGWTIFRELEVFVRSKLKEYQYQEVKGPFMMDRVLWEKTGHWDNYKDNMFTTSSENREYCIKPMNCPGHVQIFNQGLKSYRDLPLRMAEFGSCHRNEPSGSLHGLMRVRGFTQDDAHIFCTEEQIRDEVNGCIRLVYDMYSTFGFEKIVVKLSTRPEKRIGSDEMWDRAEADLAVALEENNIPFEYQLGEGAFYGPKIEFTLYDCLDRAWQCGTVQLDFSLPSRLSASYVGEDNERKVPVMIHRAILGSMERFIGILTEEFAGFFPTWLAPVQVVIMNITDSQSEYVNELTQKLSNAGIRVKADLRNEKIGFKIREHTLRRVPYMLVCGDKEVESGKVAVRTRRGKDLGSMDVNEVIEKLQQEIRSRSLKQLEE

## O=C(N[C@@H]1C(=O)O[C@@H]1Cc1ccc([N+](=O)[O-])cc1)c1cccc(O)c1O [OB, Obafluorin]
[1]; [7]
  ΔTm at 20 µM: 13.3 °C
[1]; source data sheet Fig.2a, ThrRS_G463S, read-out: ΔTm, single replicates
  ΔTm at 20 µM: 16.1 °C
[2]; [7]
  ΔTm at 20 µM: 33.4 °C
[2]; source data sheet Fig.S4a, ThrRS_A316N, read-out: ΔTm, single replicates
  ΔTm at 20 µM: 33.4 °C
[3]; [7]
  ΔTm at 20 µM: 22.6 °C
[3]; source data sheet Fig.2a, ThrRS_L489M, read-out: ΔTm, single replicates
  ΔTm at 20 µM: 23 °C
[4]; [7]
  ΔTm at 20 µM: 19.5 °C
[4]; EcThrRS_G463A vs WT, same compound
  ΔTm less than that of EcThrRS_WT: 14.0 °C
[4]; difference OB vs 36j on EcThrRS_G463A
  ΔTm less than that increased by 36j: 1.3 °C
[4]; source data sheet Fig.5a, ThrRS_G463A, read-out: ΔTm, single replicates
  ΔTm at 20 µM: 20.4 °C
[5]; [7]
  ΔTm at 20 µM: 17.2 °C
[5]; difference OB vs 36j on EcThrRS_G463S_Q484A
  ΔTm less than the effect of 36j: 10 °C
[5]; source data sheet Fig.3c, ThrRS_G463S_Q484A, read-out: ΔTm, single replicates
  ΔTm at 20 µM: 17.5 °C
[6]
  IC50: ~9 µM
